Measured values: the supplement of paper PMC11281043

Columns and labels:
Details in all cases: exposure: 6-8 hpf to 5 dpf, scored at 6 dpf
Danio rerio embryo/larva [1] = assay: max % larvae unhatched across tested concentrations; max tested concentration (log10 uM): 2; higher = more toxic
Danio rerio embryo/larva [2] = assay: max % larvae dead across tested concentrations; max tested concentration (log10 uM): 2; higher = more toxic; extreme values may be limits of the assay
Danio rerio embryo/larva [3] = assay: max % larvae with any abnormality across tested concentrations; max tested concentration (log10 uM): 2; higher = more toxic; extreme values may be limits of the assay

SMILES	max % larvae unhatched across tested concentrations (Danio rerio embryo/larva [1])	max % larvae dead across tested concentrations (Danio rerio embryo/larva [2])	max % larvae (Danio rerio embryo/larva [3])
O=C(O)CCC(F)(C(F)(F)F)C(F)(F)F [4,4-bis(Trifluoromethyl)-4-fluoropropanoic acid]	0%	16.7%	16.7%
O=C(O)C(F)(F)C(F)(F)C(=O)O [Perfluorobutanedioic acid]	0%	16.7%	16.7%
NC(=O)C(F)(F)C(F)(F)C(F)(F)C(F)(F)C(N)=O [Octafluoroadipamide]	0%	0%	0%
OCC(F)(F)C(F)(F)C(F)(F)CO [Hexafluoroamylene glycol]	0%	0%	0%
O=C(CC(=O)C(F)(F)F)C(F)(F)F [1,1,1,5,5,5-Hexafluoro-2,4-pentanedione]	0%	0%	0%
COC(=O)C(F)(F)C(F)(F)C(F)(F)C(F)(F)C(F)(F)F [Methyl perfluorohexanoate]	0%	0%	0%
OCC(F)(F)C(F)(F)C(F)(F)F [3:1 Fluorotelomer alcohol]	0%	0%	8.33%
O=C(O)C(F)(F)C(F)(F)C(F)(F)OC(F)(F)F [Perfluoro(4-methoxybutanoic acid)]	0%	0%	0%
OCC(F)(F)C(F)(F)C(F)(F)C(F)(F)C(F)(F)C(F)F [1H,1H,7H-Dodecafluoro-1-heptanol]	0%	0%	8.33%
FC(F)(F)C(F)(F)C(F)(F)CI [Heptafluorobutyl iodide]	0%	0%	0%
C=C(C)C(=O)OCCC(F)(F)C(F)(F)C(F)(F)C(F)(F)C(F)(F)C(F)(F)C(F)(F)C(F)(F)F [2-(Perfluorooctyl)ethyl methacrylate]	0%	0%	0%
OCC(F)(F)C(F)(F)C(F)(F)C(F)F [1H,1H,5H-Perfluoropentanol]	0%	16.7%	16.7%
NC(=O)C(F)(F)C(F)(F)F [Pentafluoropropionamide]	0%	0%	0%
O=C(Cl)C(F)(F)C(F)(F)C(F)(F)C(F)(F)C(F)(F)C(F)(F)F [Perfluoroheptanoyl chloride]	0%	0%	16.7%
O=C(Cl)C(F)(F)C(F)(F)C(F)(F)C(=O)Cl [Hexafluoroglutaryl chloride]	0%	0%	0%
O=C(O)C(F)(F)C(F)(F)C(F)F [4H-Perfluorobutanoic acid]	0%	0%	0%
O=S(=O)(O)CCC(F)(F)C(F)(F)C(F)(F)C(F)(F)C(F)(F)C(F)(F)C(F)(F)C(F)(F)F [8:2 Fluorotelomer sulfonic acid]	0%	0%	0%
O=C(O)C(F)(F)C(F)(F)C(F)(F)C(F)(F)C(F)(F)F [Perfluorohexanoic acid]	0%	0%	0%
O=C(O)C(F)(F)C(F)(F)C(F)(F)F [Perfluorobutanoic acid]	0%	0%	20%
O=C(Cl)C(F)(F)C(F)(F)C(F)(F)C(F)(F)C(F)(F)C(F)(F)C(F)(F)F [Pentadecafluorooctanoyl chloride]	0%	0%	16.7%
O=C(O)C(F)(F)C(F)(F)C(F)(F)C(F)(F)C(F)(F)C(F)(F)C(F)(F)C(F)F [9H-Perfluorononanoic acid]	0%	0%	18.8%
O=C(O)C(F)(F)OC(F)(F)C(F)(F)OC(F)(F)F [Perfluoro-3,6-dioxaheptanoic acid]	0%	0%	4.17%

SMILES	max % larvae unhatched across tested concentrations (Danio rerio embryo/larva [1])	max % larvae dead across tested concentrations (Danio rerio embryo/larva [2])	max % larvae (Danio rerio embryo/larva [3])
NC(=O)C(F)(F)C(F)(F)C(F)(F)C(F)(F)F [Nonafluoropentanamide]	0%	0%	0%
C=CC(=O)OCC(F)(F)C(F)(F)C(F)(F)C(F)(F)C(F)(F)C(F)(F)C(F)(F)F [1H,1H-Perfluorooctyl acrylate]	0%	0%	0%
FC(F)(F)C(F)(F)C(F)(F)CC1CO1 (configuration not stated) [1H,1H-Heptafluorobutyl epoxide]	0%	0%	9.09%
O=C(O)C(F)(F)OC(F)(F)C(F)(F)OC(F)(F)C(=O)O [Perfluoro-3,6-dioxaoctane-1,8-dioic acid]	0%	0%	0%
CCOC(=O)CC(=O)C(F)(F)C(F)(F)F [Ethyl pentafluoropropionyl acetate]	0%	0%	0%
C=CC(=O)OCCC(F)(F)C(F)(F)C(F)(F)C(F)(F)C(F)(F)C(F)(F)C(F)(F)C(F)(F)F [2-(Perfluorooctyl)ethyl acrylate]	0%	0%	0%
OCC(F)(F)OC(F)(F)C(F)(F)OC(F)(F)CO [1H,1H,8H,8H-Perfluoro-3,6-dioxaoctane-1,8-diol]	0%	0%	0%
O=C(O)C(F)(F)C(F)(F)C(F)(F)C(F)(F)C(F)(F)C(F)(F)C(F)F [8H-Perfluorooctanoic acid]	0%	0%	16.7%
O=C(O)C(F)(F)C(F)(F)C(F)(F)C(F)(F)F [Perfluoropentanoic acid]	0%	0%	25%
CCN(CCO)S(=O)(=O)C(F)(F)C(F)(F)C(F)(F)C(F)(F)C(F)(F)C(F)(F)C(F)(F)C(F)(F)F [N-Ethyl-N-(2-hydroxyethyl)perfluorooctane sulfonamide]	0%	0%	12.5%
C=C(C)C(=O)OCC(F)(F)C(F)(F)C(F)(F)F [(Perfluoropropyl)methyl methacrylate]	0%	0%	8.33%
FC(F)(F)C(F)(F)CNCC(F)(F)C(F)(F)F [Bis(1H,1H-perfluoropropyl)amine]	0%	0%	16.7%
O=C(O)C(F)(F)C(F)(F)C(F)(F)OC(F)(C(F)(F)F)C(F)(F)F [Perfluoro-4-isopropoxybutanoic acid]	0%	0%	0%
CN(C(=O)C(F)(F)C(F)(F)C(F)(F)F)[Si](C)(C)C [N-Methyl-N-trimethylsilylheptafluorobutyramide]	0%	0%	0%
FC(F)(F)C(F)(F)C(F)(F)C(F)(F)C(F)(F)C(F)(F)I [Perfluoro-1-iodohexane]	0%	0%	0%
NC(=O)C(F)(F)C(F)(F)C(F)(F)C(F)F [Perfluoropentanamide]	0%	0%	0%
O=C(O)C=CC(F)(C(F)(F)F)C(F)(F)F [3-(Perfluoroisopropyl)-2-propenoic acid]	0%	0%	16.7%
C=C(C)C(=O)OCCC(F)(F)C(F)(F)C(F)(F)C(F)(F)C(F)(C(F)(F)F)C(F)(F)F [(Perfluoro-5-methylhexyl)ethyl 2-methylprop-2-enoate]	0%	0%	0%
O=S(=O)(O)C(F)(F)C(F)(F)C(F)(F)C(F)(F)F [Potassium perfluorobutanesulfonate]	0%	0%	8.33%
O=C(O)C(F)(F)C(F)(F)C(F)(F)C(=O)O [Perfluoropentanedioic acid]	0%	0%	0%
O=S(=O)(O)C(F)(F)C(F)(F)OC(F)(F)C(F)(F)F [Perfluoro-2-ethoxyethanesulfonic acid]	0%	0%	16.7%
O=C(O)C(F)(F)OC(F)(F)C(F)(F)OC(F)(F)C(F)(F)OC(F)(F)F [Perfluoro-3,6,9-trioxadecanoic acid]	0%	16.7%	100%
